≈ marks a conversion by molar mass, not a printed value. Like-named read-outs stand apart in the source and are kept apart here.
Experiments:
[1] = tested on: KB human nasopharynx cancer; experiment: In vitro anti-tumor activity against KB human nasopharynx cancer (MTT); assay type: cell-based; details: KB, 72 h, MTT, read-out: IC50
Protocol: (§1) A culture medium containing 500 to 2,000 human cancer cells was put in an amount of 0.1 ml in each well of 96-well plate, and the cells were cultured for 20 hours under a condition of 37° C. and 5% carbon dioxide gas in air. After the culturing, a solution of test compounds of predetermined concentration was added, and then, the cells were cultured for further 72 hours. After the culturing, an MTT (5 mg/ml) solution was added in an amount of 0.01 ml in the respective wells, and the cells were cultured for further 4 hours. The supernatants of the culture medium were removed by suction, and then, 0.1 ml of dimethyl sulfoxide was put in respective well to dissolve the formed formazan, and, moreover, 0.1 ml of dimethyl sulfoxide was added.

[2] = tested on: MKN45 human stomach cancer; experiment: In vitro anti-tumor activity against MKN45 human stomach cancer (MTT); assay type: cell-based; details: MKN-45, MKN45, 72 h, MTT, read-out: IC50
Protocol: as §1

C33A human cervix cancer = experiment: In vitro anti-tumor activity against C-33A human cervix cancer (MTT); assay type: cell-based; details: C-33A, 72 h, MTT, read-out: IC50
Protocol: as §1

A427 human lung cancer = experiment: In vitro anti-tumor activity against A-427 human lung cancer (MTT); assay type: cell-based; details: A-427, 72 h, MTT, read-out: IC50
Protocol: as §1

[3] = tested on: murine P388 lymphocytic leukemia cells; experiment: Increases in life span of mice implanted with murine P388 lymphocytic leukemia cells; assay type: in vivo, SLC: BDF1 mice; details: ip; for ILS at 50 mg/kg / ILS at 1.56 mg/kg / ILS at 3.13 mg/kg / ILS at 6.25 mg/kg / ILS at 12.5 mg/kg / ILS at 25 mg/kg / ILS at 0.78 mg/kg: Mus musculus, P388, ip, 720 h
Protocol: 1×10^6 murine P388 lymphocytic leukemia cells were intraperitoneally implanted in each of SLC: BDF1 mice (8 to 10 weeks old, female, 7 animals per one group). A test compound (drug) was either dissolved in 0.1 N--NaOH or suspended in 0.4% carboxymethylcellulose solution, and the resultant solution or suspension was diluted with distilled water or 0.4% carboxymethylcellulose solution so as to give predetermined concentrations for administration. The obtained solution was intraperitoneally (ip) administered twice, namely on the day following the implantation (1st day) and the 5th day, each 0.2 ml. The life and death of the mice were observed over a period of 30 days, and the median survival time (hereinafter referred to as MST) was determined for each group, and, thus, the increase in life span (ILS; %) was calculated according to the following equation:
ILS (%)=[{(MST of the test group)/(MST of the control group)}-1]×100
Drug effect was judged in the following manner, according to the criterion of U.S. National Cancer Institute (NCI):
ILS=75% or higher: ++ (remarkably effective);
20 to 74%: + (effective);
19% or lower: - (ineffective)

[4] = tested on: colon 26 murine tumor cells; experiment: Tumor growth inhibition effect on colon 26 murine tumor cells implanted mice; assay type: in vivo, SLC: CDF1 mice; details: Mus musculus, Colon 26, 504 h, ip, days 1-9, day 21 or 22, read-out: Tumor growth inhibition rate IR (%); for inhibition in vivo at 1.56 mg/kg: 1.56 mg/kg once a day; for inhibition in vivo at 3.13 mg/kg: 3.13 mg/kg once a day
Protocol: A 2% brei of colon 26 murine tumor cells was intracutaneously implanted each 0.1 ml in the abdominal part of SLC: CDF1 female mice (7 to 9 weeks old, 7 animals per one group). […] The obtained solutions were intraperitoneally (ip) administered each 0.2 ml once a day, from the day (1st day) following the implantation to the 9th day. On the 21st or 22nd day after the implantation, tumor weight was estimated from tumor diameters, and thus, the tumor growth inhibition rate (IR %) of the drug administered group in comparison with the control group was calculated according to the following equation. IR (%)=[1-{(MTW in the treated group)/(MTW in the control group)}]×10 0 MTW: mean tumor weight

HMV2 human melanoma = experiment: In vitro anti-tumor activity against HMV-2 human melanoma (MTT); assay type: cell-based; details: HMV-2, 72 h, MTT, read-out: IC50
Protocol: as §1

[5] = tested on: WiDr human colorectal cancer; experiment: In vitro anti-tumor activity against WiDr human colorectal cancer (MTT); assay type: cell-based; details: 72 h, MTT, read-out: IC50
Protocol: as §1

[6] = tested on: AZ521 human stomach cancer; experiment: In vitro anti-tumor activity against AZ-521 human stomach cancer (MTT); assay type: cell-based; details: AZ-521, 72 h, MTT, read-out: IC50
Protocol: as §1

[7] = tested on: murine P388 lymphocytic leukemia cells; experiment: In vitro anti-tumor activity against murine P388 lymphocytic leukemia cells (MTT, 72 h); assay type: cell-based; details: Mus musculus; murine P388 cells, 72 h, MTT; read-out: IC50 (50% proliferation inhibitory concentration)
Protocol: Test compounds were tested for anti-tumor activity according to MTT [3-(4,5-dimethylthiazol-2-yl)-2,5-diphenyltetrazolium bromide] method, using murine P388 lymphocytic leukemia cells. […] The culture medium was centrifuged (4° C., 2,000 rpm for 20 minutes), and thus, the supernatants were removed by suction. Then, 0.1 ml of dimethyl sulfoxide was put in each well to dissolve the formed formazan, and, subsequently, another 0.1 ml of dimethyl sulfoxide was added. The absorbance (OD) of each of the obtained solutions was measured by use of Multiskan Bichromatic (main wavelength 570 nm, sub-wavelength 690 nm). […] IC50 :μg/ml) were calculated by the least squares method.

[8] = NCI criterion, read-out: Evaluation
[9] = days 1 and 5, in solution, read-out: ILS (%) (in solution)
[10] = days 1 and 5, in suspension, read-out: ILS (%) (in suspension)
[11] = NCI criterion, 3.13 mg/kg, read-out: Evaluation
[12] = NCI criterion, 6.25 mg/kg, read-out: Evaluation
[13] = NCI criterion, 12.5 mg/kg, read-out: Evaluation
[14] = NCI criterion, 25 mg/kg, read-out: Evaluation
[15] = 3.13 mg/kg, days 1 and 5, in solution, read-out: ILS (%) (in solution)
[16] = 3.13 mg/kg, days 1 and 5, in suspension, read-out: ILS (%) (in suspension)
[17] = 6.25 mg/kg, days 1 and 5, in solution, read-out: ILS (%) (in solution)
[18] = 12.5 mg/kg, days 1 and 5, in solution, read-out: ILS (%) (in solution)
[19] = 12.5 mg/kg, days 1 and 5, in suspension, read-out: ILS (%) (in suspension)
[20] = 25 mg/kg, days 1 and 5, in solution, read-out: ILS (%) (in solution)

Row | IC50 [1] | IC50 [2] | IC50 (C33A human cervix cancer) | IC50 (A427 human lung cancer) | IC50 (HMV2 human melanoma) | IC50 [5] | IC50 [6] | IC50 [7] | SMILES | ILS at 50 mg/kg [3, 8] | ILS at 50 mg/kg [3, 9] | ILS at 50 mg/kg [3, 10] | inhibition in vivo at 1.56 mg/kg [4] | ILS at 3.13 mg/kg [3, 11] | ILS at 6.25 mg/kg [3, 12] | ILS at 12.5 mg/kg [3, 13] | ILS at 25 mg/kg [3, 14] | ILS at 3.13 mg/kg [3, 15] | ILS at 3.13 mg/kg [3, 16] | ILS at 6.25 mg/kg [3, 17] | ILS at 12.5 mg/kg [3, 19] | other results
1 | 0.0987 µg/mL (≈ 0.266 µM) | 0.16 µg/mL (≈ 0.431 µM) | 0.156 µg/mL (≈ 0.42 µM) | 0.0832 µg/mL (≈ 0.224 µM) | 0.122 µg/mL (≈ 0.328 µM) | 0.381 µg/mL (≈ 1.03 µM) | 0.0622 µg/mL (≈ 0.167 µM) | 0.0105 µg/mL (≈ 0.0283 µM) | CNC1CCN(c2ccc3c(=O)c(C(=O)O)cn(-c4nccs4)c3n2)C1 (stereo not drawn) [Compound 6] | > 75% |  | > 275% | 71% | > 75% | > 75% | > 75% | > 75% | 100% | 100% | 138% | 200% | ILS at 1.56 mg/kg [3, 8]: 20 to 74%; ILS at 1.56 mg/kg [3, 9]: 63%; ILS at 12.5 mg/kg [3, 18]: 150%; ILS at 25 mg/kg [3, 20]: 225%
2 | 0.0494 µg/mL | 0.143 µg/mL | 0.0712 µg/mL | 0.0625 µg/mL | 0.0578 µg/mL | 0.323 µg/mL | 0.0285 µg/mL | 0.00413 µg/mL | Cl.NC1CCN(c2ccc3c(=O)c(C(=O)O)cn(-c4nc(F)cs4)c3n2)C1 (stereo not drawn) [Compound 8, 7-(3-Amino-1-pyrrolidinyl)-1-(4-fluoro-2-thiazolyl)-1,4-dihydro-4-oxo-1,8-naphthyridine-3-carboxylic acid hydrochloride] |  |  |  | 91% | > 75% |  | > 75% |  |  | 175% |  | > 275% | ILS at 0.78 mg/kg [3, 8]: > 75%; ILS at 0.78 mg/kg [3, 10]: 75%; inhibition in vivo at 0.39 mg/kg ([4]; 0.39 mg/kg once a day): 57%
3 | 0.106 µg/mL | 0.148 µg/mL | 0.151 µg/mL | 0.1 µg/mL | 0.211 µg/mL | 0.412 µg/mL | 0.0625 µg/mL | 0.00809 µg/mL | Cl.Nc1cc(N2CCC(N)C2)nc2c1c(=O)c(C(=O)O)cn2-c1nccs1 (stereo not drawn) [Compound 9, 5-Amino-7-(3-amino-1-pyrrolidinyl)-1,4-dihydro-4-oxo-1-(2-thiazolyl)-1,8-naphthyridine-3-carboxylic acid hydrochloride] | > 75% |  | 250% |  | > 75% |  | > 75% |  |  | 100% |  | 125% | inhibition in vivo at 3.13 mg/kg [4]: 62%; inhibition in vivo at 6.25 mg/kg ([4]; 6.25 mg/kg once a day): 97%
4 | 0.19 µg/mL (≈ 0.512 µM) | 0.468 µg/mL (≈ 1.26 µM) | 0.247 µg/mL (≈ 0.665 µM) | 0.153 µg/mL (≈ 0.412 µM) | 0.386 µg/mL (≈ 1.04 µM) | 0.797 µg/mL (≈ 2.15 µM) | 0.292 µg/mL (≈ 0.786 µM) | 0.0192 µg/mL (≈ 0.0517 µM) | CC1(N)CCN(c2ccc3c(=O)c(C(=O)O)cn(-c4nccs4)c3n2)C1 (stereo not drawn) [Compound 10] | > 75% | > 275% |  |  | 20 to 74% | > 75% | > 75% | > 75% | 63% | 50% | 75% | 113% | ILS at 12.5 mg/kg [3, 18]: 100%; ILS at 25 mg/kg [3, 20]: 125%; inhibition in vivo at 3.13 mg/kg [4]: 74%

Row | SMILES | IC50 [1] | IC50 [2] | IC50 (C33A human cervix cancer) | IC50 (A427 human lung cancer) | IC50 (HMV2 human melanoma) | IC50 [5] | IC50 [6] | IC50 [7] | ILS at 50 mg/kg [3, 8] | ILS at 50 mg/kg [3, 9] | ILS at 50 mg/kg [3, 10] | inhibition in vivo at 1.56 mg/kg [4] | ILS at 3.13 mg/kg [3, 11] | ILS at 6.25 mg/kg [3, 12] | ILS at 12.5 mg/kg [3, 13] | ILS at 25 mg/kg [3, 14] | ILS at 3.13 mg/kg [3, 15] | ILS at 3.13 mg/kg [3, 16] | ILS at 6.25 mg/kg [3, 17] | ILS at 12.5 mg/kg [3, 19] | other results
5 | CN[C@@H]1CN(c2ccc3c(=O)c(C(=O)O)cn(-c4nccs4)c3n2)C[C@H]1OC.Cl (single isomer, unassigned) [Compound 1-3, (-)-1,4-Dihydro-7-(trans-3-methoxy-4-methylamino-1-pyrrolidinyl)-4-oxo-1-(2-thiazolyl)-1,8-naphthyridine-3-carboxylic acid hydrochloride] | 0.208 µg/mL | 0.222 µg/mL | 0.148 µg/mL | 0.107 µg/mL | 0.234 µg/mL | 0.503 µg/mL | 0.11 µg/mL | 0.02 µg/mL | > 75% | > 275% | 200% | 50% |  |  |  |  |  |  |  |  | Evaluation ([3]; NCI criterion, 3.13 mg/kg): + (20 to 74%: + (effective)); Evaluation ([3]; NCI criterion, 6.25 mg/kg): ++ (ILS=75% or higher: ++ (remarkably effective)); Evaluation ([3]; NCI criterion, 12.5 mg/kg): ++ (ILS=75% or higher: ++ (remarkably effective)); Evaluation ([3]; NCI criterion, 25 mg/kg): ++ (ILS=75% or higher: ++ (remarkably effective)); ILS (%) (in solution) ([3]; 3.13 mg/kg, days 1 and 5, in solution): 63%; ILS (%) (in suspension) ([3]; 3.13 mg/kg, days 1 and 5, in suspension): 63%; ILS (%) (in solution) ([3]; 6.25 mg/kg, days 1 and 5, in solution): 88%; ILS (%) (in solution) ([3]; 12.5 mg/kg, days 1 and 5, in solution): 138%; ILS (%) (in suspension) ([3]; 12.5 mg/kg, days 1 and 5, in suspension): 125%; ILS (%) (in solution) ([3]; 25 mg/kg, days 1 and 5, in solution): 200%; inhibition in vivo at 2.21 mg/kg ([4]; 2.21 mg/kg once a day): 75%

— patent US5817669A, “Compounds, processes for the preparation thereof and anti-tumor agents” (Dainippon Pharmaceutical Co., Ltd., priority 1994, dated 1998)
